melting point	Compound
193 to 195 °C	CCN1C(=O)NC(c2ccc3ccccc3c2)c2cc3c(cc21)OCO3 (stereo not drawn)
> 350 °C	O=c1c2c([nH]c3nc(N4CCCCC4)nn13)CCCS2
118 to 119 °C	COc1cc2c(cc1OCc1ccccc1)CCNC2c1ccccc1 (stereo not drawn)
124 °C	CCOC(=O)/C=C/c1ccc(O)cc1Oc1ncc(C(F)(F)F)cc1Cl
134 to 135 °C	CC(C)(C)C(=O)OCN1C(=O)CC2(C1=O)C(=O)N(Cc1ccc(Cl)c(Cl)c1)c1ccccc12 (stereo not drawn)
138 °C	Cc1oc(-c2ccccc2)nc1CCOc1ccc(CC(C(N)=O)C(=O)O)cc1 (stereo not drawn)
198 °C	NS(=O)(=O)c1cccc(-c2cn(-c3nc(-c4ccc(C(F)(F)F)cc4)cc(C(F)(F)F)n3)cn2)c1
133 to 135 °C	Cc1cc(C(O)(C(F)(F)F)C(F)(F)F)cc(C)c1SCC(=O)O
173 to 176 °C	COc1ccc(C(F)(F)F)cc1N1CCN(CCCNC(=O)c2cccc3c(=O)c(C)c(-c4ccccc4)oc23)CC1
248 to 252 °C	O=c1c2ccccc2sc(-c2ccncc2)[n+]1[O-]
94 to 95 °C	Cn1ncc(N(CCCO)Cc2ccccc2)c(Cl)c1=O
123 to 125 °C	CCc1ccc(OCCCN2CCN(c3ccc(Cl)nn3)CC2)cc1
> 300 °C	O=c1[nH]c2[nH]c3ccc(Cl)cc3c2c2c(F)cccc12
215 to 216 °C	CCCc1nc(C)n2[nH]c(=O)nc2c1Cc1ccc(-c2ccccc2C#N)cc1
100 to 102 °C	CC(C)(C)C(=O)N(O)Cc1ccccc1Cl
120 to 122 °C	COc1cc(OC)c(-c2cc3ccccc3n2C)cc1C=CC(=O)c1ccc(S(=O)(=O)N(C)C)cc1
116 to 118 °C	O=C(NN1CCCN(C(=O)OCc2ccccc2)CC1)c1ccc(F)cc1
114 to 115 °C	CCOC(=O)c1cc2cc([Si](C)(C)C)ccc2[nH]1
122 to 124 °C	CCCCNS(=O)(=O)c1ccc(N2CCC3(CC2)OCCO3)cc1
125 °C	CCCC1=C(C(=O)OCC)C(c2sccc2C)c2c[nH]nc2N1 (stereo not drawn)
90 to 93 °C	N[C@H]1CC[C@H](CC(=O)N2CCN(c3ccccc3)CC2)CC1
122 to 123 °C	CCN(Cc1cccnc1)C(=S)NC
160 to 161 °C	N#Cc1c(O)ccc2ccccc12
184 to 185 °C	CC(C)(C(=O)O)S(=O)c1ccc2c(-c3ccc(Cl)cc3)noc2c1 (stereo not drawn)

melting point	Compound
319 to 320 °C	NC(=O)c1ccc2nc3ccsc3c(=O)n2c1
80 to 81 °C	CC(=O)OCCCC(=C(c1ccccc1)c1ccccc1)c1ccccc1
132 to 133 °C	Cc1c(NC(=O)c2ccc(OC[C@@H]3CCCO3)cc2F)ccc2cc(CNCC(C)(C)O)n(C)c12
115 to 116 °C	COc1ccc(CCCC(C)=O)cc1S(N)(=O)=O
265 to 266 °C	Cn1c(C(F)(F)F)cc(=O)n(-c2ccc3snc(OCC#N)c3c2)c1=O
128 to 130 °C	O=C(OCc1ccccc1)N1CCC(O)(CNc2ccc(Cl)c(Cl)c2)CC1
179 to 180 °C	CCN(CC)C(=O)Nc1ccc2oc3c(c2c1)CCCC3
64 to 66 °C	COc1ccc(OC)c(SCCCCC#N)c1
198 to 200 °C	CCCCc1nc2c(N)nc3cc(Br)ccc3c2n1CC(C)C
184 to 186 °C	C=C(C)CN(CC(=O)O)c1c(N)c(=O)c1=O
294 to 296 °C	CN1C(C(=O)Nc2ccccc(O)c2=O)=C(O)c2ccccc2S1(=O)=O
119 to 121 °C	Oc1ccccc1OCC1CCN(CC(O)COc2cccc3[nH]ccc23)CC1 (stereo not drawn)
72 °C	COc1ccc2c(c1)C1Cc3ccccc3C1N2C (stereo not drawn)
191 to 192 °C	CCCn1c(COCC)nc2c(N)nc3cc(OCCN4CCOCC4)ccc3c21
120 °C	O=C(NCC(=O)OCCC(F)=C(F)F)Nc1ccc(Cl)cc1Cl
122 to 124 °C	COc1cnc(CO)cc1OC
185 to 186 °C	O=C(Nc1ccc(-n2nc(C(F)(F)F)cc2C(F)(F)F)cc1)N1CCOCC1
130 to 133 °C	CCCCc1nn(-c2cc(NC(=O)c3ccccc3)ccc2Br)c(=O)n1Cc1ccc(-c2ccccc2S(=O)(=O)NC(=O)OC(C)(C)C)cc1F
182 to 183 °C	CCC1Oc2cccc3nc4c(c(c23)NC1=O)CCCC4 (stereo not drawn)
96 to 98 °C	CCOc1c(C)c(N2CCN(c3ccc(C)cc3)CC2)c(C)c2c1OC(C)C2 (stereo not drawn)
200 to 202 °C	CCc1cc(N)c(C(=O)c2ccccc2)c(C)n1
155 to 157 °C	COc1ccc2c(c1)c(CC(N)=O)c(C)n2Cc1ccc(OCc2ccccc2)cc1
165 to 185 °C	CCc1ccc2nc(C)[nH]c(=O)c2c1
> 220 °C	O=C(OCc1ccccc1)C1CC(=C2NC(=O)N(c3ccccc3)C2=O)c2ccc(Cl)cc2N1 (stereo not drawn)

melting point	Compound
149 to 151 °C	Cc1c(C(=O)Nc2ccc(N3CCN(CCO)CC3)c(C#N)c2)cnn1-c1ccc(F)cc1F
92 to 94 °C	CC(Oc1cccc2ccoc12)C(N)=NO (stereo not drawn)
97 to 98 °C	CCOC(=O)C=C(C)Oc1ccc(C23CC4CC(CC(C4)C2)C3)cc1
84 to 86 °C	O=C(CCN1CCN(c2ccc3c(c2)OCO3)CC1)c1csc2ccc(F)cc12
208 to 210 °C	O=C(O)Cc1cc(=O)n(Cc2ccc([N+](=O)[O-])cc2)c2ccccc12
219 to 221 °C	Cc1[nH]n(C2CCCC2)c2nc(C3CCN(C(=O)C(F)(F)F)CC3)nc(=O)c1-2
63.1 to 66.3 °C	CCCCCC[C@@H]1C(=O)O[C@H]1OC(=O)N(CCCCC)c1ccccc1Oc1ccccc1 (relative stereo)
167 to 168 °C	COc1cc(OC)c(-c2cc3ccccc3n2C)cc1C=CC(=O)c1ccc(S(=O)(=O)NCCN2CCOCC2)cc1
281 °C	CC(C)(C)NS(=O)(=O)c1cnc(-c2cn(-c3nc(-c4ccc(C(F)(F)F)cc4)cc(C(F)(F)F)n3)cn2)s1
108 to 110 °C	COc1ccc(C(=O)OC2C=C(C)C(=O)CC(C)(C)C2O)cc1 (stereo not drawn)
109 to 110 °C	COCCCNC(=O)c1ccc(C(=O)N2CCN(c3ncccc3NCC(C)C)CC2)nc1
95 to 97 °C	CNC(=NS(C)(=O)=O)NCCSCc1csc(CN(C)C)n1
109 to 110 °C	COc1cc(Nc2cc(C(F)(F)F)nc(-c3cc(Cl)nc(Cl)c3)n2)cc(OC)c1
134 to 135 °C	Nc1cc(I)ccc1Nc1cccc(-n2cccn2)c1
124 to 125 °C	CCOC(=O)C1CN(C2CC2)c2nc(Sc3ccc(C)cc3)c(F)cc2C1=O (stereo not drawn)
169 to 173 °C	CCOC(=O)c1cn2c3c(c(F)c(F)c(F)c3c1=O)C(C(=O)OC(C)(C)C)(C(=O)OC(C)(C)C)CN2C
217 to 219 °C	COC(=O)c1ccc2c(c1)SC(c1ccccc1)C(c1ccc3c(c1)NC(=O)CO3)=C2 (stereo not drawn)
112 to 114 °C	CC1=C2CCc3cc(Cl)ccc3N2CCC1=O
191 °C	CCn1c(=O)ccn(-c2ccc(N)cc2)c1=O
153 to 155 °C	CC(=O)Nc1ccc(Sc2ccc(Br)cc2)cc1
174 °C	CC(C)n1nc(-c2c(-c3ccccc3)nn3ccc(OCC(=O)OCc4ccccc4)cc23)ccc1=O
87 to 88 °C	N#Cc1sccc1[N+](=O)[O-]
113 to 114 °C	O=C1C(c2ccccc2)=C(c2ccccc2)C(=O)N1Cc1ccccc1F
97 °C	CCCCCCCCCCCCC1CC(=C(C#N)C#N)CCC1=C(C#N)C#N (stereo not drawn)

melting point	Compound
212 to 214 °C	O=C1NC(=S)SC1=Cc1cccc(OCc2ccc(C(=O)c3ccccc3)cc2)c1
155 to 157 °C	CS(=O)(=O)c1ccc(-c2cnn(-c3cccc(Cl)c3)c(=O)c2C2CCCC2)cc1
199 to 201 °C	CC(C)CN(CCCc1ccc(F)cc1)[C@H]1CC[C@H](c2ccc3[nH]c(=O)oc3c2)CC1
68 to 69 °C	CCOC(=O)CCCNc1cccc(/C=C/c2nc3ccccc3s2)c1
98 to 99 °C	Cc1oc(-c2ccccc2)nc1COc1ccc(Cn2cc(CC(=O)O)c(-c3cccs3)n2)cc1
112 to 115 °C	CCOC(=O)N(c1ccc(Cl)cc1)c1ccccc1N
> 250 °C	N#Cc1cc(C[C@H](N)C(=O)O)ccc1O
136 to 141 °C	COc1cc2c(cc1Nc1ncc3ccc(-c4ccccc4OC)n3n1)CN(C)C2
208 to 210 °C	CN1CCN(c2cc(Cl)cc3[nH]c(=O)n(Cc4ccccc4)c(=O)c23)CC1
239 to 240 °C	COC(=O)Oc1ccc(CNC=C2C(=O)NC(=O)c3ccc(Br)cc32)cc1OC(=O)OC
48 to 51 °C	Cc1ccc(C(C(=O)C(C)C)c2ccc(C)cc2)cc1
219 to 220 °C	Clc1ccc2c3c(cnc2c1)OCCN3
229 to 230 °C	Cc1cc(-c2nc3ccc(CN4CCN(C)CC4)cc3c(=O)[nH]2)cc(C)n1
172 to 175 °C	CC(=O)OC1CSC(Oc2ccc3cc[nH]c3c2)C(OC(C)=O)C1OC(C)=O (stereo not drawn)
78 to 81 °C	Cc1nc(N2CCN(Cc3ncoc3-c3ccccc3)C2=O)sc1C(=O)NCc1cccnc1
122 to 123 °C	CCOc1cc(OCc2cccc(OCc3nc(-c4ccccc4)oc3C)c2)ccc1CCC(=O)O
191 to 194 °C	CC(=Cc1ccc(Oc2cccnc2)cc1)C(=O)O
99 to 101 °C	Cc1c(C)c2c(c(C)c1OCc1ccccc1)C(CN1CCCC1CO)C(C)(C)O2 (mixture of isomers)
193 to 194 °C	COc1ccc(C(=O)N2CCc3cc(S(=O)(=O)N4CCN(c5cccc(Cl)c5)CC4)ccc32)cc1
152 to 155 °C	CCOC(=O)c1ccc(NC(=O)CC(c2ccc(Cl)cc2)c2ccc(Cl)cc2)cc1
196 to 198 °C	COC(=O)c1cc2nccnc2cc1NC(=O)OC(C)(C)C

Compound	melting point
COC(=O)c1ncn2c1CN=C(c1ccccc1F)c1cc(Cl)ccc1-2	179 to 181 °C
CCc1c(C(=O)C(N)=O)c2c(OCC(=O)O)cc3c(c2n1Cc1ccccc1)CCCC3	222 to 225 °C
N#CC1CN1C(=O)NC(=O)C(Cl)(Cl)Cl (stereo not drawn)	150 to 152 °C
NC(=S)c1ncn2c1[C@@H]1CCN1C(=O)c1c(Cl)cccc1-2	250 to 253 °C
CC(C)CN1CCC(c2ccc(Br)cc2)CC1	36 to 37 °C
